Test results as given in patent US11116721B2, “Pharmaceutical formulations comprising 4-{(1R)-2-[(6-{2-[(2,6-dichlorobenzyl)oxy]ethoxy}hexyl)amino]-1-hydroxyethyl}-2-(hydroxymethyl) phenol” (Glaxo Group Limited, priority 2009, dated 2021).

Columns and labels:
COPD patients = test: Clinical pharmacology studies of Compound (I) in COPD patients (FEV1); format: in vivo, human; conditions: 100 mcg and 400 mcg, with lactose alone
Text: (§1) Compound (I) as the α-phenylcinnamate salt and the triphenylacetate salt has been studied in a number of clinical pharmacology studies, including single- and repeat-dose studies. In addition, these studies have evaluated Compound (I) with the excipients cellobiose octaacetate and magnesium stearate.
In COPD patients, treatment with 100 mcg and 400 mcg Compound (I) alpha-phenylcinnamate (with lactose alone) achieved a clinically relevant adjusted mean difference from placebo in weighted mean trough FEV1 (22 to 24 hrs) of >100 mL.

asthmatic patients [1] = test: Clinical pharmacology studies of Compound (I) in asthmatic patients (FEV1); format: in vivo, human; conditions: all doses of Compound (I)
Text: as §1
In one study in asthmatic patients 100 mcg of Compound (I) triphenylacetate formulated with lactose and magnesium stearate has shown a favourable onset of action.

beta-2 adrenoreceptor = test: Animal and human studies of Compound (I): bronchodilation and safety; format: in vivo
asthmatic patients [2] = test: Clinical pharmacology studies of Compound (II) in asthmatic patients (FEV1); format: in vivo, human; conditions: doses of from 100 to 400 mcg
Text: Compound (II) has been studied in a number of clinical pharmacology studies, including single- and repeat-dose studies and at a range of doses. In addition, these studies have evaluated Compound (II) with the excipients cellobiose octaacetate and magnesium stearate.

[3] = Studies of Compound (II) in animal models and humans; format: in vivo

SMILES: O=C(O)C(=Cc1ccccc1)c1ccccc1.OCc1cc([C@@H](O)CNCCCCCCOCCOCc2c(Cl)cccc2Cl)ccc1O [Compound (I) alpha-phenylcinnamate, 4-{(1R)-2-[(6-{2-[(2,6-dichlorobenzyl)oxy]ethoxy}hexyl)amino]-1-hydroxyethyl}-2-(hydroxymethyl)phenol α-phenylcinnamate]
- adjusted mean difference from placebo in weighted mean trough FEV1 (22 to 24 hrs) (COPD patients): > 100 mL

SMILES: OCc1cc([C@@H](O)CNCCCCCCOCCOCc2c(Cl)cccc2Cl)ccc1O [Compound (I), 4-{(1R)-2-[(6-{2-[(2,6-dichlorobenzyl)oxy]ethoxy}hexyl)amino]-1-hydroxyethyl}-2-(hydroxymethyl)phenol]
- improvement in trough (24-hour) FEV1 compared to placebo (asthmatic patients [1]): statistically and clinically significant improvement
- bronchodilation (beta-2 adrenoreceptor): sustained bronchodilation over a 24 hour period
- safety profile (beta-2 adrenoreceptor): favourable safety profile

SMILES: C[C@@H]1CC2C3C[C@H](F)C4=CC(=O)C=C[C@]4(C)[C@@]3(F)[C@@H](O)C[C@]2(C)[C@@]1(OC(=O)c1ccco1)C(=O)SCF (stereo partly drawn) [Compound (II), 6α, 9α-difluoro-17α-[(2-furanylcarbonyl)oxy]-11β-hydroxy-16α-methyl-3-oxo-androsta-1,4-diene-17β-carbothioic acid S-fluoromethyl ester]
- improvement in trough (24-hour) FEV1 compared to placebo (asthmatic patients [2]): statistically and clinically significant improvement
- duration of action (inhaled glucocorticosteroid) [3]: long acting
